Measured values as given in ChEMBL document CHEMBL1130825, “Novel D-ring analogues of podophyllotoxin as potent anti-cancer agents” (1998).

Columns and labels:
HT-29 = test: In vitro cytotoxicity against human colon cancer HT 29 cell line; assay type: functional
MDA-N = test: In vitro cytotoxicity against human breast cancer MDA-N cell line; assay type: functional
BT-549 = test: In vitro cytotoxicity against human breast cancer BT-549 cell line; assay type: functional
MDA-MB-435 = test: In vitro cytotoxicity against human breast cancer MDA-MB 435 cell line; assay type: functional
KM12 = test: In vitro cytotoxicity against human colon cancer KM 12 cell line; assay type: functional
DU-145 [1] = test: Compound was evaluated for in vitro cytotoxicity against DU-145 cancer cell line; assay type: functional; conditions: Homo sapiens
MDA-MB-231 = test: In vitro cytotoxicity against human breast cancer MDA-MB 231 cell line; assay type: functional
MCF7 [2] = test: In vitro cytotoxicity against human breast cancer MCF-7 cell line; assay type: functional
SW-620 = test: In vitro cytotoxicity against human colon cancer SW 620 cell line; assay type: functional
A498 [3] = test: Compound was evaluated for in vitro cytotoxicity against A 498 cancer cell line; assay type: functional; conditions: Homo sapiens
HCT-15 = test: In vitro cytotoxicity against human colon cancer HCT 15 cell line; assay type: functional
MCF7 [4] = test: Compound was evaluated for in vitro cytotoxicity against MCF-7 ADR cancer cell line; assay type: functional; conditions: Homo sapiens
M14 [5] = test: Compound was evaluated for in vitro cytotoxicity against M-14 cancer cell line; assay type: functional; conditions: Homo sapiens
[6] = In vitro cytotoxicity against human breast cancer MCF-7 ADR cell line; assay type: functional; conditions: MCF7
SK-OV-3 [7] = test: Compound was evaluated for in vitro cytotoxicity against SKOV3 cancer cell line; assay type: functional; conditions: Homo sapiens
NCI-H522 = test: Compound was evaluated for in vitro cytotoxicity against H522 cancer cell line; conditions: Homo sapiens
HCT-116 = test: In vitro cytotoxicity against human colon cancer HCT 116 cell line; assay type: functional
HCC 2998 = test: In vitro cytotoxicity against human colon cancer HCC 2998 cell line; assay type: functional
Hs-578T = test: In vitro cytotoxicity against human breast cancer Hs 578.T cell line; assay type: functional
COLO 205 = test: In vitro cytotoxicity against human colon cancer COLO 205 cell line; assay type: functional
MCF7 [8] = test: Compound was evaluated for in vitro cytotoxicity data against human breast cancer MCF-7 ADR cell line; assay type: functional
DU-145 [9] = test: in vitro cytotoxicity against DU-145 cancer cell line; assay type: functional; conditions: Homo sapiens
MCF7 [10] = test: in vitro cytotoxicity against MCF-7 ADR cancer cell line; assay type: functional; conditions: Homo sapiens
A498 [11] = test: in vitro cytotoxicity against A 498 cancer cell line; assay type: functional; conditions: Homo sapiens
M14 [12] = test: in vitro cytotoxicity against M-14 cancer cell line; assay type: functional; conditions: Homo sapiens
SK-OV-3 [13] = test: in vitro cytotoxicity against SKOV3 cancer cell line; assay type: functional; conditions: Homo sapiens

| Structure (SMILES) | GI50 (HT-29) [µM] | GI50 (MDA-N) [µM] | GI50 (BT-549) [µM] | GI50 (MDA-MB-435) [µM] | GI50 (KM12) [µM] | GI50 (MDA-MB-231) [µM] | GI50 (MCF7 [2]) [µM] | GI50 (SW-620) [µM] | GI50 (HCT-15) [µM] | GI50 [6] [µM] | GI50 (HCT-116) [µM] | GI50 (HCC 2998) [µM] | GI50 (Hs-578T) [µM] | GI50 (COLO 205) [µM] | further results |
| --- | --- | --- | --- | --- | --- | --- | --- | --- | --- | --- | --- | --- | --- | --- | --- |
| COC(=O)[C@@H]1[C@H](c2cc(OC)c(OC)c(OC)c2)c2cc3c(cc2[C@H](O)[C@H]1CO)OCO3 | 0.02 | 0.01 | 0.06 | 0.01 | 0.02 | 0.03 | 0.03 | 0.02 | 0.04 | 0.04 | 0.04 | 0.03 | 0.01 | 0.01 | GI50 (DU-145 [1]): 0.04 µM; GI50 (A498 [3]): 0.03 µM; GI50 (MCF7 [4]): 0.04 µM; GI50 (M14 [5]): 0.04 µM; GI50 (SK-OV-3 [7]): 0.03 µM; GI50 (NCI-H522): 0.01 µM |
| CCCOC(=O)[C@@H]1C(c2cc(OC)c(OC)c(OC)c2)c2cc3c(cc2[C@@H]2OC(=O)OC[C@@H]12)OCO3 (some centres not stated) | > 30 | – | – | – | 2 | – | – | – | 0.3 | – | 0.5 | 2 | – | 0.9 | – |
| COc1cc([C@@H]2c3cc4c(cc3[C@H](O)[C@@H](CO)[C@@H]2C(=O)O)OCO4)cc(OC)c1OC | 50 | – | – | – | < 0.01 | – | – | – | > 100 | – | 40 | 55 | – | < 0.01 | – |
| CCCCOC(=O)[C@@H]1[C@H](c2cc(OC)c(OC)c(OC)c2)c2cc3c(cc2[C@H](O)[C@H]1CO)OCO3 | 2.5 | 11.5 | > 30 | 1.6 | 1.86 | > 30 | 2 | 2.2 | 2 | 5.6 | 3.7 | 1.8 | – | 1.9 | – |
| COc1cc([C@@H]2c3cc4c(cc3[C@@H](O[C@@H]3O[C@@H]5CO[C@@H](C)O[C@H]5[C@H](O)[C@H]3O)[C@H]3COC(=O)[C@H]23)OCO4)cc(OC)c1O [ETOPOSIDE] | 15.1 | < 0.01 | – | 0.9 | 5.62 | 2 | – | – | – | – | 6.16 | 3.46 | 8 | 18.1 | GI50 (MCF7 [8]): 25 µM |
| COC(=O)[C@@H]1[C@H](c2cc(OC)c(O)c(OC)c2)c2cc3c(cc2[C@@H]2OC(=O)OC[C@@H]12)OCO3 | > 30 | – | – | – | 0.4 | – | – | – | 0.4 | – | 0.5 | 1 | – | 0.2 | – |
| COC(=O)[C@@H]1C(c2cc(OC)c(OC)c(OC)c2)c2cc3c(cc2[C@@H]2OC(=O)OC[C@@H]12)OCO3 (some centres not stated) | > 30 | – | – | – | 70 | – | – | – | 10 | – | > 30 | 20 | – | 2 | – |
| CCOC(=O)[C@@H]1[C@H](c2cc(OC)c(O)c(OC)c2)c2cc3c(cc2[C@@H]2OC(=O)OC[C@@H]12)OCO3 | 0.2 | – | – | – | 0.2 | – | – | – | 0.4 | – | 0.6 | 1.5 | – | 30 | – |
| CCCOC(=O)[C@@H]1[C@H](c2cc(OC)c(OC)c(OC)c2)c2cc3c(cc2[C@H](O)[C@H]1CO)OCO3 | 0.89 | 1.45 | > 30 | 0.4 | 0.56 | > 30 | 0.8 | 0.7 | 1.4 | 3.2 | 0.42 | 1.7 | 2.13 | 1.2 | – |
| COC(=O)[C@@H]1[C@H](c2cc(OC)c(O)c(OC)c2)c2cc3c(cc2[C@H](O)[C@H]1CO)OCO3 | 0.09 | 0.1 | 0.5 | 0.1 | 0.11 | 0.1 | 0.3 | 0.34 | 1.02 | 0.1 | 0.2 | 0.8 | 3.12 | 0.1 | GI50 (DU-145 [9]): 0.47 µM; GI50 (MCF7 [10]): 0.1 µM; GI50 (A498 [11]): 0.4 µM; GI50 (M14 [12]): 0.86 µM; GI50 (SK-OV-3 [13]): 0.34 µM |
| CCOC(=O)[C@@H]1[C@H](c2cc(OC)c(OC)c(OC)c2)c2cc3c(cc2C(=O)[C@H]1CO)OCO3 | 3.36 | 1.7 | 5.45 | 1.33 | 4.21 | 5.99 | 3.86 | 2.07 | 3.99 | 5.14 | 4.35 | 5.63 | 1.56 | 2.22 | – |
| COc1cc([C@@H]2c3cc4c(cc3[C@H](O)[C@H]3COC(=O)[C@H]23)OCO4)cc(OC)c1OC [PODOFILOX] | 0.01 | 0.07 | – | 0.7 | 0.01 | 0.04 | 0.9 | – | 0.02 | 0.6 | 0.01 | 0.2 | 0.08 | – | – |
| CCOC(=O)[C@@H]1[C@H](c2cc(OC)c(OC)c(OC)c2)c2cc3c(cc2[C@H](O)[C@H]1CO)OCO3 | 17 | 3.5 | > 30 | 4.4 | 8.4 | 18 | 23 | 26 | 13 | 14 | 24 | 14 | 27 | 14 | GI50 (DU-145 [9]): > 30 µM; GI50 (MCF7 [10]): 14.3 µM; GI50 (A498 [11]): > 30 µM; GI50 (M14 [12]): 14.9 µM; GI50 (SK-OV-3 [7]): 29.9 µM |
| CCOC(=O)[C@@H]1C(c2cc(OC)c(OC)c(OC)c2)c2cc3c(cc2[C@@H]2OC(=O)OC[C@@H]12)OCO3 (some centres not stated) | 2 | – | – | – | 6 | – | – | – | 0.2 | – | 0.09 | 8 | – | 1.5 | – |
| COC(=O)[C@@H]1[C@H](c2cc(OC)c(OC)c(OC)c2)c2cc3c(cc2C(=O)[C@H]1CO)OCO3 | 3.52 | 2.24 | 29 | 1.64 | 3.62 | 16.5 | 4.11 | 3.71 | 5.71 | 17.5 | 6.26 | 10.8 | 1.89 | 7.71 | – |
| CCOC(=O)[C@@H]1[C@H](c2cc(OC)c(O)c(OC)c2)c2cc3c(cc2[C@H](O)[C@H]1CO)OCO3 | 0.88 | 1.06 | 4.91 | 0.84 | 0.78 | 6.78 | 2.17 | 1.17 | 2.07 | – | 1.7 | 1.3 | 1.2 | 1.16 | GI50 (DU-145 [9]): 1.63 µM; GI50 (A498 [11]): 1.1 µM; GI50 (M14 [12]): 2.1 µM; GI50 (SK-OV-3 [13]): 3.35 µM |
